Source: US20070275967A1, “Pyrazolinols” (BAYER CROPSCIENCE AKTIENGESELLSCHAFT, priority 2003, published 2007)

Assays:
[1] = logP determination by HPLC on reversed-phase column (EEC Directive 79/831 Annex V.A8); format: physicochemical; conditions: reversed-phase C18 HPLC column; acidic range (pH 2.3), marked a); 0.1% aqueous phosphoric acid/acetonitrile gradient; reversed-phase C 18; 43° C.
Method: The logP values given in the table were determined in accordance with EEC Directive 79/831 Annex V.A8 by HPLC (High Performance Liquid Chromatography) on a reversed-phase column (C 18). Temperature: 43° C. (a) Mobile phases for the determination in the acidic range (pH 2.3): 0.1% aqueous phosphoric acid, acetonitrile; linear gradient from 10% acetonitrile to 90% acetonitrile—the corresponding measurement results in table 1 are marked a). (b) Mobile phases for the determination in the neutral range (pH 7.5): 0.01-molar aqueous phosphate buffer solution, acetonitrile; linear gradient from 10% acetonitrile to 90% acetonitrile—the corresponding measurement results in table 1 are marked b). Calibration was carried out using unbranched alkan-2-ones (having 3 to 16 carbon atoms) with known logP values (determination of the logP values by the retention times using linear interpolation between two successive alkanones).

[2] = tested on: green peach aphid (Myzus persicae); assay: Myzus test (spray treatment); format: in vivo; conditions: for activity (kill of aphids): Chinese cabbage disks infested by all stages of Myzus persicae, sprayed, result in words; for pest or weed control at 500 g/ha: active compound concentration 500 g/ha
Method: Myzus Test (Spray Treatment) [table] To produce a suitable preparation of active compound, 1 part by weight of active compound is mixed with the stated amounts of solvents and emulsifier, and the concentrate is diluted with emulsifier-containing water to the desired concentration. Disks of Chinese cabbage (Brassica pekinensis) which are infested by all stages of the green peach aphid (Myzus persicae) are sprayed with a preparation of active compound of the desired concentration. After the desired period of time, the activity in % is determined. 100% means that all aphids have been killed; 0% means that none of the aphids have been killed.

[3] = tested on: larvae of the mustard beetle (Phaedon cochleariae); assay: Phaedon test (spray treatment); format: in vivo; conditions: for activity (kill of beetle larvae): Chinese cabbage disks sprayed, populated with Phaedon cochleariae larvae, result in words; for pest or weed control at 500 g/ha / pest or weed control at 100 g/ha: Phaedon cochleariae, 168 h, after 7 d, spray treatment, read-out: Kill rate in % after 7 d; for pest or weed control at 500 g/ha: active compound concentration 500 g/ha; for pest or weed control at 100 g/ha: active compound concentration 100 g/ha
Method: Phaedon Test (Spray Treatment) [table] To produce a suitable preparation of active compound, 1 part by weight of active compound is mixed with the stated amounts of solvents and emulsifier, and the concentrate is diluted with emulsifier-containing water to the desired concentration. Disks of Chinese cabbage (Brassica pekinensis) are sprayed with a preparation of active compound of the desired concentration and, once they have dried, populated with larvae of the mustard beetle (Phaedon cochleariae). After the desired period of time, the activity in % is determined. 100% means that all beetle larvae have been killed; 0% means that none of the beetle larvae have been killed.

[4] = tested on: caterpillars of the armyworm (Spodoptera frugiperda); assay: Spodoptera frugiperda test (spray treatment); format: in vivo; conditions: for pest or weed control at 500 g/ha / pest or weed control at 100 g/ha: Spodoptera frugiperda, 168 h, after 7 d, spray treatment, read-out: Kill rate in % after 7 d; for pest or weed control at 500 g/ha: active compound concentration 500 g/ha; for activity (kill of caterpillars): corn leaf disks sprayed, populated with Spodoptera frugiperda caterpillars, result in words; for pest or weed control at 100 g/ha: active compound concentration 100 g/ha
Method: Spodoptera Frugiperda Test (Spray Treatment) [table] To produce a suitable preparation of active compound, 1 part by weight of active compound is mixed with, the stated amounts of solvents and emulsifier, and the concentrate is diluted with emulsifier-containing water to the desired concentration. Disks of corn leaves (Zea mays) are sprayed with a preparation of active compound of the desired concentration and, after they have dried, populated with caterpillars of the armyworm (Spodoptera frugiperda). After the desired period of time, the activity in % is determined. 100% means that all caterpillars have been killed; 0% means that none of the caterpillars have been killed.

[5] = tested on: greenhouse red spidermite (Tetranychus urticae); assay: Tetranychus test (OP-resistant/spray treatment); format: in vivo; conditions: for pest or weed control at 100 g/ha / pest or weed control at 500 g/ha: Tetranychus urticae, 120 h, after 5 d, OP-resistant, spray treatment, read-out: Kill rate in % after 5 d; for pest or weed control at 100 g/ha: active compound concentration 100 g/ha; for activity (kill of spidermites): bean leaf disks infested by all stages of Tetranychus urticae (OP-resistant), sprayed, result in words; for pest or weed control at 500 g/ha: active compound concentration 500 g/ha
Method: Tetranychus Test (OP-Resistant/Spray Treatment)
To produce a suitable preparation of active compound, 1 part by weight of active compound is mixed with the stated amounts of solvents and emulsifier, and the concentrate is diluted with emulsifier-containing water to the desired concentration.
Disks of bean leaves (Phaseolus vulgaris) which are infested by all stages of the greenhouse red spidermite (Tetranychus urticae) are sprayed with a preparation of active compound of the desired concentration.
After the desired period of time, the activity in % is determined. 100% means that all spidermites have been killed; 0% means that none of the spidermites have been killed.

[6] = Myzus persicae, 120 h, after 5 d, spray treatment, read-out: Kill rate in % after 5 d

Row | Structure (SMILES) | chromatographic logP [1] | activity (kill of aphids) [2] | pest or weed control at 500 g/ha [2, 6] | activity (kill of beetle larvae) [3] | pest or weed control at 500 g/ha [3] | pest or weed control at 500 g/ha [4] | activity (kill of caterpillars) [4] | pest or weed control at 100 g/ha [5] | activity (kill of spidermites) [5] | pest or weed control at 500 g/ha [5] | pest or weed control at 100 g/ha ([2]; Myzus persicae, 120 h, active compound concentration 100 g/ha, after 5 d, spray treatment, read-out: Kill rate in % after 5 d) | pest or weed control at 100 g/ha [3] | pest or weed control at 100 g/ha [4]
1 | CC(C)C1=NN(C(=S)Nc2ccccc2F)C(O)(C(F)(F)F)C1 (centres unmarked) [Example 1, N-(2-fluorophenyl)-5-hydroxy-3-(i-propyl)-5-trifluoromethyl-4,5-dihydro-1H-pyrazole-1-carbothioamide] | 3.86 | good activity | 100% | good activity | 100% | 100% | good activity | 90% | good activity | – | – | – | –
2 | CCC1=NN(C(=O)Nc2ccc(OC(F)(F)F)cc2)C(O)(C(F)(F)F)C1 (centres unmarked) [Example 12] | 3.74 | good activity | 100% | – | – | – | – | – | – | – | – | – | –
3 | CCC1=NN(C(=S)Nc2ccccc2Cl)C(O)(C(F)(F)F)C1 (centres unmarked) [Example 15] | 3.85 | good activity | 90% | – | – | – | – | – | – | – | – | – | –
4 | CC(C)C1=NN(C(=S)Nc2ccccc2Cl)C(O)(C(F)(F)F)C1 (centres unmarked) [Example 20] | 4.28 | good activity | 100% | – | – | 100% | good activity | – | – | – | – | – | –
5 | CC(C)CC1=NN(C(=S)Nc2ccc(OC(F)(F)F)cc2)C(O)(C(F)(F)F)C1 (centres unmarked) [Example 22] | 4.42 | – | – | – | – | – | – | – | good activity | 90% | – | – | –
6 | CC(C)CC1=NN(C(=S)Nc2ccccc2Cl)C(O)(C(F)(F)F)C1 (centres unmarked) [Example 24] | 4.6 | good activity | 90% | – | – | 100% | good activity | – | good activity | 90% | – | – | –
7 | CC(C)C1=NN(C(=S)Nc2ccccc2)C(O)(C(F)(F)F)C1 (centres unmarked) [Example 27] | 3.9 | good activity | 100% | good activity | 100% | 100% | good activity | 90% | good activity | – | – | – | –
8 | COc1ccccc1NC(=S)N1N=C(C(C)C)CC1(O)C(F)(F)F (centres unmarked) [Example 30] | 4.23 | – | – | good activity | 100% | – | – | – | good activity | 90% | – | – | –
9 | CC(C)C1=NN(C(=S)Nc2ccccc2[N+](=O)[O-])C(O)(C(F)(F)F)C1 (centres unmarked) [Example 31] | 4.04 | good activity | 100% | good activity | 100% | 100% | good activity | – | – | – | – | – | –
10 | CC(C)C1=NN(C(=S)Nc2cc(Cl)ccc2Cl)C(O)(C(F)(F)F)C1 (centres unmarked) [Example 33] | 4.87 | good activity | 100% | good activity | 100% | – | – | – | – | – | – | – | –
11 | CCC1=NN(C(=S)Nc2ccccc2F)C(O)(C(F)(F)F)C1 (centres unmarked) [Example 40] | 3.51 | good activity | 90% | – | – | – | – | – | – | – | – | – | –
12 | CC(C)C1=NN(C(=S)NCc2ccccc2Cl)C(O)(C(F)(F)F)C1 (centres unmarked) [Example 42] | 4.58 | good activity | 100% | good activity | 100% | 100% | good activity | – | good activity | 100% | – | – | –
13 | CC(C)C1=NN(C(=S)NC2CCCCC2)C(O)(C(F)(F)F)C1 (centres unmarked) [Example 44] | 4.94 | – | – | good activity | 100% | 100% | good activity | – | good activity | 90% | – | – | –
14 | CC1=NN(C(=O)Nc2ccc(OC(F)(F)F)cc2)C(O)(C(F)(F)F)C1 (centres unmarked) [Example 46] | 3.35 | good activity | 90% | – | – | – | – | – | – | – | – | – | –
15 | CCC1=NN(C(=S)NCc2ccccc2F)C(O)(C(F)(F)F)C1 (centres unmarked) [Example 55] | 3.88 | – | – | good activity | 100% | 100% | good activity | 90% | good activity | – | – | – | –
16 | CCC1=NN(C(=S)NCc2ccccc2Cl)C(O)(C(F)(F)F)C1 (centres unmarked) [Example 56] | 4.25 | – | – | good activity | 100% | – | – | 90% | good activity | – | – | – | –
17 | Cc1ccc(NC(=O)N2N=C(C(C)(C)C)CC2(O)C(F)(F)F)cc1 (centres unmarked) [Example 70] | 4.05 | good activity | – | – | – | – | – | – | – | – | 100% | – | –
18 | CC(C)(C)C1=NN(C(=S)Nc2ccc(Cl)cc2)C(O)(C(F)(F)F)C1 (centres unmarked) [Example 74] | 4.75 | – | – | good activity | – | – | good activity | 100% | good activity | – | – | 100% | 100%
19 | CC(C)(C)C1=NN(C(=S)NCc2ccc(Cl)cc2)C(O)(C(F)(F)F)C1 (centres unmarked) [Example 75] | 4.9 | – | – | good activity | – | – | good activity | 100% | good activity | – | – | 100% | 100%
20 | CC1=NN(C(=S)Nc2ccc(OC(F)(F)F)cc2)C(O)(C(F)(F)F)C1 (centres unmarked) [Example 106] | 3.37 | – | – | – | – | – | – | 100% | good activity | – | – | – | –
21 | CC1=NN(C(=S)Nc2ccc(Cl)cc2Cl)C(O)(C(F)(F)F)C1 (centres unmarked) [Example 118] | 3.97 | – | – | – | – | – | – | 90% | good activity | – | – | – | –
22 | CC1=NN(C(=S)NCCc2ccc(Cl)cc2)C(O)(C(F)(F)F)C1 (centres unmarked) [Example 126] | 4.24 | – | – | – | – | – | – | 90% | good activity | – | – | – | –
